Assay results taken from PMC8175350, “Drug repurposing screens identify chemical entities for the development of COVID-19 interventions” (Nature Communications, 2021).
“And” between values parts separate entries of the source, which are not always exact repeats. Equal entries are not always repeated. Structures can show the parent of a compound that is named as a salt. Where two headings read alike, the source gives them in different places.

Columns and labels:
Calu-3 cells [1] = assay: Uninfected Calu-3 48 h Cell-Titer Glo cytotoxicity counter screen; conditions: for Calu-3 uninfected cytotoxicity Sinf Average (%): Sinf average of the curves; for Calu-3 uninfected cytotoxicity Sinf Average: curve-fit effect at infinite concentration
HeLa-ACE2 cells [2] = assay: Uninfected HeLa-ACE2 24 h live/dead cytotoxicity counter screen; format: cell-based, human; conditions: for HeLa-ACE2 uninfected cytotoxicity Sinf Average (%): Sinf average of the curves; for HeLa-ACE2 uninfected cytotoxicity Sinf Average: curve-fit effect at infinite concentration
[3] = as above; format: cell-based, human; conditions: human, uninfected HeLa-ACE2 cells
SARS-CoV-2 [4] = assay: microbe, parasite or virus in culture; format: cell-based; conditions: for EC50: Severe acute respiratory syndrome coronavirus 2, HeLa-ACE2, read-out: HeLa-ACE2 CoV-2 EC50 GeoMean; for Emax: Severe acute respiratory syndrome coronavirus 2, HeLa-ACE2, 24 h, curve-fit effect at infinite concentration, average, read-out: HeLa-ACE2 CoV-2 Sinf Average
HeLa-ACE2 cells [5] = assay: cells; conditions: Homo sapiens; for Emax: HeLa-ACE2, 24 h, read-out: HeLa-ACE2 cell count Sinf Average
in vitro = conditions: human
Calu-3 cells [6] = assay: cells; conditions: Homo sapiens; for Emax: Calu-3, 48 h
SARS-CoV-2 [7] = assay: microbe, parasite or virus in culture; format: cell-based; conditions: for Emax: Severe acute respiratory syndrome coronavirus 2, Calu-3, 48 h; for EC50: read-out: Calu-3 CoV-2 EC50 GeoMean
[8] = Uninfected Calu-3 48 h Cell-Titer Glo cytotoxicity counter screen; conditions: human, uninfected Calu-3 cells, Calu-3 uninfected cytotoxicity CC50 GeoMean, unrounded geometric mean
Calu-3 cells [9] = conditions: for Calu-3 uninfected cytotoxicity Sinf Average (%): human, 48 h
SARS-CoV-2 [10] = format: cell-based
[11] = geometric mean of replicates, read-out: HeLa-ACE2 uninfected cytotoxicity CC50 GeoMean
[12] = HeLa-ACE2, read-out: HeLa-ACE2 cell count EC50 GeoMean (µM), geometric mean of replicates
[13] = Calu-3 uninfected cytotoxicity CC50 GeoMean (µM), geometric mean of replicates
[14] = read-out: Calu-3 cell count Sinf Average (%)
[15] = Calu-3, read-out: Calu-3 cell count EC50 GeoMean (µM), geometric mean of replicates
[16] = Sinf average of the curves, read-out: Calu-3 CoV-2 Sinf Average (%)
[17] = Severe acute respiratory syndrome coronavirus 2, Calu-3, geometric mean of replicates
[18] = uninfected cells, Fig. 2b group, read-out: HeLa-ACE2 CC50
[19] = unrounded geometric mean, read-out: HeLa-ACE2 uninfected cytotoxicity CC50 GeoMean
[20] = HeLa-ACE2, read-out: HeLa-ACE2 cell count EC50 GeoMean, unrounded geometric mean
[21] = read-out: Calu-3 cell count Sinf Average
[22] = Calu-3, read-out: Calu-3 cell count EC50 GeoMean, unrounded geometric mean
[23] = curve-fit effect at infinite concentration, average, read-out: Calu-3 CoV-2 Sinf Average
[24] = Severe acute respiratory syndrome coronavirus 2, Calu-3, unrounded geometric mean
[25] = Calu-3 uninfected cytotoxicity CC50 GeoMean, unrounded geometric mean
[26] = Calu-3 uninfected cytotoxicity CC50 GeoMean (µM)

Compound | CC50 at 24 h [3, 11] [nM] | EC50 (SARS-CoV-2 [4]; geometric mean of replicates) [nM] | EC50 (HeLa-ACE2 cells [5]; [12]) [µM] | EC50 (Calu-3 cells [6]; [15]) [µM] | Emax (SARS-CoV-2 [7]; [16]) [%] | EC50 (SARS-CoV-2 [7]; [17]) [nM] | Calu-3 uninfected cytotoxicity Sinf Average (Calu-3 cells [1]) [%] | HeLa-ACE2 uninfected cytotoxicity Sinf Average (HeLa-ACE2 cells [2]) [%] | CC50 at 24 h [3, 18] [nM] | CC50 at 24 h [3, 19] [nM] | EC50 (SARS-CoV-2 [4]; unrounded geometric mean) [nM] | Emax (HeLa-ACE2 cells [5]) [%] | EC50 (HeLa-ACE2 cells [5]; [20]) [µM] | Emax (Calu-3 cells [6]; [21]) [%] | EC50 (Calu-3 cells [6]; [22]) [µM] | Emax (SARS-CoV-2 [7]; [23]) [%] | EC50 (SARS-CoV-2 [7]; [24]) [nM] | Emax (SARS-CoV-2 [4]) [%] | CC50 (in vitro; [25]) [µM] | other results
O=C(Nc1ccc(Cl)c(S(=O)(=O)N2CCNCC2)c1O)Nc1cccc(F)c1Cl [Elubrixin tosylate] | > 39800 | > 9590 | > 9.59 | > 9.98 | 100 | 6910 | – | – | – | – | – | – | – | – | – | – | – | – | – | Calu-3 uninfected cytotoxicity Sinf Average (%) (Calu-3 cells [1]): -100%; HeLa-ACE2 uninfected cytotoxicity Sinf Average (%) (HeLa-ACE2 cells [2]): -100%; CC50 at 48 h (in vitro; [13]): > 29.6 µM; Emax (Calu-3 cells [6]; [14]): 67%
COCc1c(C(C)C)nc(C(C)C)c(/C=C/[C@@H](O)C[C@@H](O)CC(=O)O)c1-c1ccc(F)cc1 [Cerivastatin sodium] | – | – | – | – | – | – | -100 | -74 | ≤ 3000 | 308 | > 9590 | 100 | > 9.59 | 89 | 0.936 | 63 | 348 | – | – | CC50 at 48 h [8]: > 29900 nM
COC(=O)[C@@]12OC[C@]34[C@H]([C@@H](O)[C@@H]1O)[C@@]1(C)CC(=O)C(O)=C(C)[C@@H]1C[C@H]3OC(=O)[C@H](OC(=O)/C=C(\C)C(C)C)[C@@H]24 [Bruceantin] | – | – | – | – | – | – | -53 | -100 | ≤ 3000 | < 117 | 5.78 | 99 | 0.0968 | -100 | > 6.92 | 99 | 19.4 | 98 | 0.973 | –
Cn1c(C#N)ccc1-c1ccc2c(c1)C(C)(C)OC(=S)N2 [Tanaproget] | – | – | – | – | – | – | -100 | -50 | ≤ 3000 | 128 | 141 | 100 | > 9.59 | 98 | > 9.98 | 87 | 2440 | 49 | – | CC50 at 48 h (in vitro; Calu-3 uninfected cytotoxicity CC50 GeoMean): > 19.3 µM; uninfected Calu-3 CC50 (Calu-3 cells [9]): > 19.278 ×÷ 2.07 (n=3) μM
C=C(C)[C@]12C[C@@H](C)[C@@]34O[C@](Cc5ccccc5)(O[C@@H]1[C@@H]3C=C(COC(=O)Cc1ccc(O)c(OC)c1)C[C@]1(O)C(=O)C(C)=C[C@@H]41)O2 [Resiniferatoxin] | – | – | – | – | – | – | -100 | -100 | – | 7170 | > 1300 | 100 | > 8.34 | 75 | > 2.87 | 80 | 903 | 75 | 17.3 | –
N6-isopentenyladenosine [Riboprine] | – | – | – | – | – | – | – | – | – | – | – | – | – | – | – | – | – | – | – | interaction with remdesivir (SARS-CoV-2 [10]): synergistic (key: additive: Additive effect: -10< δ <10; synergistic effect: δ >10; antagonistic eff ect: δ <10); maximal efficacy (SARS-CoV-2 [10]): 100%
CC[C@@H]1/C=C/C=C/C[C@H](C)[C@@H](O)[C@](C)(O)C(=O)[C@H](C)[C@@H](O)[C@H](C)C(=O)[C@H](C)[C@@H](O)[C@H](C)/C=C/C(=O)O[C@H]2[C@@H](C)[C@@H](CC1)O[C@]1(O[C@H](C[C@H](C)O)[C@H](C)CC1=O)[C@@H]2C [Oligomycin B] | – | – | – | – | – | – | -89 | -100 | – | 22000 | > 9590 | 100 | > 8.16 | 50 | > 0.311 | 93 | < 5.39 | – | > 24.5 | –
CCOc1ccc(Cc2nc3cc(N(C)S(=O)(=O)c4cccs4)ccc3n2CC2CCCCC2)nc1 [AZ-11713908] | > 33000 | > 9590 | > 9.59 | > 9.73 | 93 | 3530 | – | – | – | – | – | – | – | – | – | – | – | – | – | Calu-3 uninfected cytotoxicity Sinf Average (%) (Calu-3 cells [1]): -95%; HeLa-ACE2 uninfected cytotoxicity Sinf Average (%) (HeLa-ACE2 cells [2]): -100%; CC50 (in vitro; [13]): > 29.9 µM; Emax (Calu-3 cells [6]; [14]): 100%
CC(=O)O[C@H]1C[C@H](O[C@H]2[C@@H](O)C[C@H](O[C@H]3[C@@H](O)C[C@H](O[C@H]4CC[C@@]5(C)[C@H](CC[C@@H]6[C@@H]5C[C@@H](O)[C@]5(C)[C@@H](C7=CC(=O)OC7)CC[C@]65O)C4)O[C@@H]3C)O[C@@H]2C)O[C@H](C)[C@H]1O[C@@H]1O[C@H](CO)[C@@H](O)[C@H](O)[C@H]1O [Lanatoside C] | – | – | – | – | – | – | -28 | -101 | ≤ 3000 | 1350 | 206 | 96 | 0.379 | -33 | > 9.98 | 86 | 194 | 97 | > 6.21 | –
CO[C@H]1C[C@H](O[C@H]2CC[C@]3(C=O)[C@H]4CC[C@]5(C)[C@@H](C6=CC(=O)OC6)CC[C@]5(O)[C@@H]4CC[C@]3(O)C2)O[C@H](C)[C@H]1O [Cymarine] | – | – | – | – | – | – | -40 | -95 | ≤ 3000 | 287 | 237 | 100 | 0.311 | -100 | > 9.98 | 87 | 135 | 93 | > 5.87 | –
CC[C@H]1CN2CCc3cc(OC)c(OC)cc3[C@@H]2C[C@@H]1C[C@H]1NCCc2cc(O)c(OC)cc21 [Cephaeline] | – | – | – | – | – | – | -68 | -100 | ≤ 3000 | 212 | 16.8 | 107 | 0.309 | 100 | > 6.92 | 96 | 142 | 99 | > 4.96 | –
CC(C)(C)c1ccc(CSc2cnn(C(C)(C)C)c(=O)c2Cl)cc1 [Pyridaben] | > 39800 | > 9590 | > 9.59 | 0.345 | 93 | 205 | – | – | – | – | – | – | – | – | – | – | – | – | – | Calu-3 uninfected cytotoxicity Sinf Average (%) (Calu-3 cells [1]): -94%; CC50 (in vitro; [13]): > 8.99 µM; Emax (Calu-3 cells [6]; [14]): 47%
Nc1nc(N)c2nc(CCc3ccc(C(=O)N[C@@H](CCC(=O)O)C(=O)O)cc3)cnc2n1 [10-deazaaminopterin] | – | – | – | – | – | – | – | – | – | – | – | – | – | – | – | – | – | – | – | interaction with remdesivir (SARS-CoV-2 [10]; ZIP model): synergistic (synergistic effect: δ >10); dose-response point, normalized infected cells (SARS-CoV-2 [10]; alone, Concentration [uM] -9.01818): 8.312 and 15.4845 and 9.998; maximal efficacy (SARS-CoV-2 [10]; compound alone): 40%; maximal efficacy (SARS-CoV-2 [10]; with EC2 of remdesivir): ~65%; maximal efficacy (SARS-CoV-2 [10]; with EC24 of remdesivir): > 80%
CCCCCCCCCCCCCC(=O)O[C@@H]1[C@@H](C)[C@@]2(O)[C@@H](C=C(CO)C[C@]3(O)C(=O)C(C)=C[C@@H]23)[C@@H]2C(C)(C)[C@]12OC(C)=O [Phorbol 12-myristate 13-acetate] | – | – | – | – | – | – | -100 | -58 | ≤ 3000 | > 201 | – | – | > 9.59 | 100 | > 9.98 | 59 | 16.2 | 40 | 22.5 | –
N#Cc1cccc(C(C(=O)NCC(c2ccccc2)c2ccccc2)N(CCc2c[nH]cn2)C(=O)c2ccccc2C(=O)c2ccccc2)c1 (centres unmarked) [GENZ-29155] | > 38500 | > 9590 | > 9.59 | > 9.98 | 79 | > 4660 | – | – | – | – | – | – | – | – | – | – | – | – | – | HeLa-ACE2 uninfected cytotoxicity Sinf Average (%) (HeLa-ACE2 cells [2]): -67%; HeLa-ACE2 CoV-2 Sinf Average (%) (SARS-CoV-2 [4]; Sinf average of the curves): -67%; CC50 at 48 h (in vitro; [26]): > 29.9 µM; uninfected Calu-3 CC50 [μM] (Calu-3 cells [9]): > 29.867 ×÷ 1 (n=3) μM; Calu-3 uninfected cytotoxicity Sinf Average (%) (Calu-3 cells [9]): 0%
O=c1[nH]ccc2cc(OC3CCNCC3)ccc12 [SAR-407899] | > 38700 | > 9590 | > 9.59 | 2.72 | 54 | > 3850 | – | – | – | – | – | – | – | – | – | – | – | – | – | HeLa-ACE2 uninfected cytotoxicity Sinf Average (%) (HeLa-ACE2 cells [2]): -100%; CC50 at 48 h (in vitro; [26]): > 29.9 µM; uninfected Calu-3 CC50 [μM] (Calu-3 cells [9]): > 29.867 ×÷ 1 (n=3) μM; Calu-3 uninfected cytotoxicity Sinf Average (%) (Calu-3 cells [9]): 0%; Emax (Calu-3 cells [6]; [14]): 97%
